The nature of series [1]: Blood levels of contrast medium of four patient groups after oral administration (3 g, microcrystal suspension) with various additional treatments. To be noted: sodium bicarbonate given orally with the contrast agent.
Protocol: (§1) Suspension with Various Additional Treatments
(§2) III = 10 mg. of Metoclopramide i.v.; and
IV = g. of Sodium Bicarbonate)
The conditions of series [2]: human, in vivo.
Protocol: as §1, §2
IV = g. of Sodium Bicarbonate)
Series [3] can be described thus: clinical. To be noted: human, in vivo, po.
Protocol: as §1, §2
IV = g. of Sodium Bicarbonate)

Take `O=C(O)O` [sodium bicarbonate]: in series [1], the “effect of simultaneous oral administration on resorption of the contrast agent” value is given as “accelerates resorption of the contrast agent in a statistically significant manner”.

`CCN(C(=O)CCC(=O)O)c1c(I)cc(I)c(NC)c1I` [succinic acid mono-2,4,6-triiodo-3-methylamino-N-ethylanilide]: the resorption half life in series [2] was determined as 0.3 ± 0.1 h. Moreover, the “blood level within 30 minutes after ingestion, on the average, as % of the maximum value” in series [2] (30 min) came to 80%. Further, in series [2] (po), the “Cmax (% of dose in total blood volume)” value was 23 ± 8 % of Dose in Bl. Vol and the “tmax (time of maximum blood level)” value came to 2.2 ± 0.4 h. In series [3], this compound displayed a half-life of 2.3 ± 1.4 h. Further, the Cmax in series [3] (Cmax (maximum concentration in blood)) stood at 114 ± 45 µg/mL. For the same compound, the Tmax in series [3] (time after administration at which the maximum blood level is attained) is at most 0.9 h.

As usually defined, the half-life is how long it takes for the measured level to halve. Higher therefore signals slow decline. The Cmax is the maximum level reached in the sampled fluid or tissue. The Tmax is the time from dosing to the highest level.

(Values after patent US4101647A, “Oral dosage form for X-ray contrast media containing a pharmaceutically acceptable base and method of use thereof” (Schering Aktiengesellschaft, priority 1975, dated 1978).)
